Assay results published in patent US20140350273A1, “PEDIATRIC USES OF CABAZITAXEL” (AVENTIS PHARMA S.A., priority 2012, published 2014).
Where two headings read alike, the source gives them in different places. Marks after values point to notes of the source that are not given here.

Test system: human osteosarcoma DM113
Format: in vivo
Method: The resultant solution contains 10 mg/mL of cabazitaxel. Stock solution of cabazitaxel was then diluted in 0.9% sodium chloride.
This efficacy may be quantified, for example, as changes in tumor volume for each treated (T) and control (C) group, which are calculated for each animal and each day by subtracting the tumor volume on the day of first treatment (staging day) from the tumor volume on the specified observation day. This allows calculating the tumor growth inhibition: ΔT/ΔC=(median delta T/median delta C)×100. Individual tumor volume changes from baseline are thereafter analyzed by a non-parametric two-way ANOVA-TYPE (with factors: group and repeated days) followed by a post-hoc contrasts analysis, with Bonferroni-Holm adjustment for multiplicity, comparing all treated groups to the control group. […] A probability less than 5% (p<0.05) was considered as significant.
Based on the National Cancer Institute (NCl) standards, a ΔT/ΔC≦40% is the minimal level required to declare activity.
This efficacy may also be quantified by the number of tumor regressions observed after therapy. Individual mice reporting a tumor volume ≦50% of the Day 0 measurement for two consecutive measurements over a seven day period were considered partial responders (PR). Individual mice lacking palpable tumors (<4×4 mm^2 for two consecutive measurements over a seven day period) were classified as complete responders (CR); a CR that persisted until study completion was considered a tumor-free survivor (TFS).
Efficacy could also be determined at study completion, using tumor growth delay (T-C) in days, which is calculated using the median time to endpoint (MTTE) value for each treatment (T) group versus control (C). A Log Rank multiple comparison test with Bonferroni-Holm adjustment for multiplicity was applied on individual TTE to compare the treated groups to the control group.
The animals subjected to the experiment are subcutaneously grafted unilaterally with approximately 30 mg of a tumor fragment from low passage pediatric patient-derived tumor xenografts. The animals are implanted with a human patient-derived pediatric tumor xenografted in immuno-compromised mice (Harlan; nu/nu). Several days post tumor implantation, mice are randomized according to their tumor burden to the different groups of treatments and controls. The agents are dosed intravenously at 5.8, 9.3, 15 or 24.2 mg/kg every 4 days for a total of 3 doses (q4d×3) to mice bearing a tumor burden at start of therapy (day 0) ranged from 125 to 250 mm^3.
Beginning Day 0, animals were observed daily and weighed twice weekly using a digital scale; data including individual and mean gram weights (Mean We±SD), mean percent weight change versus Day 0 were recorded for each group. Animal deaths were recorded daily and designated as drug-related (D), technical (T), tumor related (B), or unknown (U) based on weight loss and gross observation; single agent or combination groups reporting a mean >20% for a period of 7 days and/or >10% mortality were considered above the maximum tolerated dose (MTD) for that treatment on the evaluated regimen.
The selected tumor model, DM113, was a low passage patient-derived tumor xenograft derived from an osteosarcoma taken from the lung of a patient.
The following end points were used: • Toxicity was declared at dosages inducing ≧20% body weight loss or ≧10% drug death; • Antitumor efficacy was determined by calculating the ΔT/ΔC value in percent on day 28 post treatment initiation, according to the above mentioned formula; • Individual tumor volume changes from baseline were analyzed by a non-parametric two-way ANOVA-TYPE (with factors: group and repeated day from 3 to 28) followed by a post-hoc contrasts analysis, with Bonferroni-Holm adjustment for multiplicity, comparing all treated groups to the control group on day 28. […] The volume endpoint for T-C calculations was chosen to be 1600 mm^3.

[1] = 5.8 mg/kg i.v./q4dx3, volume endpoint 1600 mm^3
[2] = 9.3 mg/kg i.v./q4dx3, volume endpoint 1600 mm^3
[3] = 15 mg/kg i.v./q4dx3, volume endpoint 1600 mm^3
[4] = 24.2 mg/kg i.v./q4dx3, volume endpoint 1600 mm^3

CC(=O)O[C@@]12CO[C@@H]1C[C@H](O)[C@@]1(C)C(=O)[C@H](O)C3=C(C)[C@@H](OC(=O)[C@H](O)[C@@H](NC(=O)OC(C)(C)C)c4ccccc4)C[C@@](O)([C@@H](OC(=O)c4ccccc4)[C@H]21)C3(C)C [Docetaxel, docetaxel]
#CR (5.8 mg/kg i.v./q4dx3): 0/0/0
#PR (5.8 mg/kg i.v./q4dx3): 0/0/0
#TFS (5.8 mg/kg i.v./q4dx3): 0/0/0
Drug Deaths Total (5.8 mg/kg i.v./q4dx3): 0
Weight Nadir % (5.8 mg/kg i.v./q4dx3): −2%
Weight Nadir Day (5.8 mg/kg i.v./q4dx3): 3
Tumor Volume Data (Day 28) Median (5.8 mg/kg i.v./q4dx3, day 28): 598 mm^3
ΔT/ΔC % (5.8 mg/kg i.v./q4dx3, day 28): 42.9%
MTTE [1]: 41 days
T-C [1]: 9 days
ΔT/ΔC (5.8 mg/kg q4d×3 IV, day 28): 42.9%
tumor growth delay (T-C) (5.8 mg/kg q4d×3 IV, volume endpoint 1600 mm^3): 9 days
tumor volume changes from baseline, Median +/− MAD (5.8 mg/kg, DAY 3): 22.5 +/− 22.5
tumor volume changes from baseline, Median +/− MAD (5.8 mg/kg, DAY 8): 95 +/− 22.5
tumor volume changes from baseline, Median +/− MAD (5.8 mg/kg, DAY 11): 117.5 +/− 45
tumor volume changes from baseline, Median +/− MAD (5.8 mg/kg, DAY 14): 189 +/− 60.5
tumor volume changes from baseline, Median +/− MAD (5.8 mg/kg, DAY 17): 242.5 +/− 110
tumor volume changes from baseline, Median +/− MAD (5.8 mg/kg, DAY 21): 278.5 +/− 142
tumor volume changes from baseline, Median +/− MAD (5.8 mg/kg, DAY 24): 435 +/− 159
tumor volume changes from baseline, Median +/− MAD (5.8 mg/kg, DAY 28): 487 +/− 231.5
tumor volume changes from baseline, Median +/− MAD (5.8 mg/kg, DAY 31): 598 +/− 204
tumor volume changes from baseline, Median +/− MAD (5.8 mg/kg, DAY 35): 813 +/− 367
tumor volume changes from baseline, Median +/− MAD (5.8 mg/kg, DAY 38): 960 +/− 388
tumor volume changes from baseline, Median +/− MAD (5.8 mg/kg, DAY 42): 1032 +/− 326
tumor volume changes from baseline, Median +/− MAD (5.8 mg/kg, DAY 46): 1340 +/− 384
#CR (9.3 mg/kg i.v./q4dx3): 0
#PR (9.3 mg/kg i.v./q4dx3): 1
#TFS (9.3 mg/kg i.v./q4dx3): 0
Drug Deaths Total (9.3 mg/kg i.v./q4dx3): 0*
Weight Nadir % (9.3 mg/kg i.v./q4dx3): −3%
Weight Nadir Day (9.3 mg/kg i.v./q4dx3): 17
Tumor Volume Data (Day 28) Median (9.3 mg/kg i.v./q4dx3, day 28): 442 mm^3
ΔT/ΔC % (9.3 mg/kg i.v./q4dx3, day 28): 27.4%
MTTE [2]: 49 days
T-C [2]: 17 days
tumor volume changes from baseline, Median +/− MAD (9.3 mg/kg, DAY 3): 56.5 +/− 26.5
tumor volume changes from baseline, Median +/− MAD (9.3 mg/kg, DAY 8): 85.5 +/− 27
tumor volume changes from baseline, Median +/− MAD (9.3 mg/kg, DAY 11): 73 +/− 42.5
tumor volume changes from baseline, Median +/− MAD (9.3 mg/kg, DAY 14): 85.5 +/− 34.5
tumor volume changes from baseline, Median +/− MAD (9.3 mg/kg, DAY 17): 117.5 +/− 51.5
tumor volume changes from baseline, Median +/− MAD (9.3 mg/kg, DAY 21): 140.5 +/− 52
tumor volume changes from baseline, Median +/− MAD (9.3 mg/kg, DAY 24): 239 +/− 94.5
tumor volume changes from baseline, Median +/− MAD (9.3 mg/kg, DAY 28): 311 +/− 75.5
tumor volume changes from baseline, Median +/− MAD (9.3 mg/kg, DAY 31): 390 +/− 90.5
tumor volume changes from baseline, Median +/− MAD (9.3 mg/kg, DAY 35): 545 +/− 52
tumor volume changes from baseline, Median +/− MAD (9.3 mg/kg, DAY 38): 677 +/− 118
tumor volume changes from baseline, Median +/− MAD (9.3 mg/kg, DAY 42): 827.5 +/− 293.5
tumor volume changes from baseline, Median +/− MAD (9.3 mg/kg, DAY 46): 1187 +/− 347.5
#CR (15 mg/kg i.v./q4dx3): 0/0/0
#PR (15 mg/kg i.v./q4dx3): 0/0/0
#TFS (15 mg/kg i.v./q4dx3): 0/0/0
Drug Deaths Total (15 mg/kg i.v./q4dx3): 0
Weight Nadir % (15 mg/kg i.v./q4dx3): −8%
Weight Nadir Day (15 mg/kg i.v./q4dx3): 17
Tumor Volume Data (Day 28) Median (15 mg/kg i.v./q4dx3, day 28): 178 mm^3
ΔT/ΔC % (15 mg/kg i.v./q4dx3, day 28): 3.2%
MTTE [3]: >59 days
T-C [3]: >28 days
numbers of PR (15 mg/kg q4d×3 IV): 0/10
tumor volume changes from baseline, Median +/− MAD (15 mg/kg, DAY 3): 26 +/− 26
tumor volume changes from baseline, Median +/− MAD (15 mg/kg, DAY 8): 26 +/− 26
tumor volume changes from baseline, Median +/− MAD (15 mg/kg, DAY 11): 13 +/− 16.5
tumor volume changes from baseline, Median +/− MAD (15 mg/kg, DAY 14): 13 +/− 16.5
tumor volume changes from baseline, Median +/− MAD (15 mg/kg, DAY 17): 13 +/− 16.5
tumor volume changes from baseline, Median +/− MAD (15 mg/kg, DAY 21): 0 +/− 19
tumor volume changes from baseline, Median +/− MAD (15 mg/kg, DAY 24): 22.5 +/− 23.5
tumor volume changes from baseline, Median +/− MAD (15 mg/kg, DAY 28): 36.5 +/− 35.5
tumor volume changes from baseline, Median +/− MAD (15 mg/kg, DAY 31): 42.5 +/− 29.5
tumor volume changes from baseline, Median +/− MAD (15 mg/kg, DAY 35): 61 +/− 61
tumor volume changes from baseline, Median +/− MAD (15 mg/kg, DAY 38): 61 +/− 81
tumor volume changes from baseline, Median +/− MAD (15 mg/kg, DAY 42): 107 +/− 90
tumor volume changes from baseline, Median +/− MAD (15 mg/kg, DAY 46): 155 +/− 153
#CR (24.2 mg/kg i.v./q4dx3): 0
#PR (24.2 mg/kg i.v./q4dx3): 1
#TFS (24.2 mg/kg i.v./q4dx3): 0
Drug Deaths Total (24.2 mg/kg i.v./q4dx3): 0
Weight Nadir % (24.2 mg/kg i.v./q4dx3): −13%
Weight Nadir Day (24.2 mg/kg i.v./q4dx3): 17
ΔT/ΔC % (24.2 mg/kg i.v./q4dx3, day 28): 0%
MTTE [4]: >59 days
T-C [4]: >28 days
numbers of PR (24.2 mg/kg q4d×3 IV): 1/10
tumor volume changes from baseline, Median +/− MAD (24.2 mg/kg, DAY 3): 29.5 +/− 13.5
tumor volume changes from baseline, Median +/− MAD (24.2 mg/kg, DAY 8): 22.5 +/− 22.5
tumor volume changes from baseline, Median +/− MAD (24.2 mg/kg, DAY 11): 0 +/− 22
tumor volume changes from baseline, Median +/− MAD (24.2 mg/kg, DAY 14): −9.5 +/− 35
tumor volume changes from baseline, Median +/− MAD (24.2 mg/kg, DAY 17): −9.5 +/− 26
tumor volume changes from baseline, Median +/− MAD (24.2 mg/kg, DAY 21): −9.5 +/− 26
tumor volume changes from baseline, Median +/− MAD (24.2 mg/kg, DAY 24): 0 +/− 0
tumor volume changes from baseline, Median +/− MAD (24.2 mg/kg, DAY 28): 0 +/− 9.5
tumor volume changes from baseline, Median +/− MAD (24.2 mg/kg, DAY 31): 0 +/− 9.5
tumor volume changes from baseline, Median +/− MAD (24.2 mg/kg, DAY 35): 0 +/− 9.5
tumor volume changes from baseline, Median +/− MAD (24.2 mg/kg, DAY 38): 0 +/− 9.5
tumor volume changes from baseline, Median +/− MAD (24.2 mg/kg, DAY 42): 0 +/− 9.5
tumor volume changes from baseline, Median +/− MAD (24.2 mg/kg, DAY 46): 50.5 +/− 47.5
